Common to all, as to assay type: cell-based
For series [1], the system named is normal human keratinocyte cell line (HaCaT). Put plainly: Cytotoxicity in normal cell line (MTT). The settings on record: HaCaT; peptide 32 μM; 24 hours; MTT. The method in brief:
(§1)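 HaCaT and Hs27 cells (1×10^4/well, DMEM with 10% FBS) were seeded 24 h, then exposed 24 h to peptides at 0.5–32 μM. Viability was measured by MTT reduction (1 h), with DMSO-dissolved formazan read at 570 nm.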

In series [2] the test system is normal human fibroblast cell line (Hs27). Put plainly: Cytotoxicity in normal cell line (MTT). Conditions: Hs27; peptide 32 μM; 24 hours; MTT. A digest of the protocol:
as §1

The subject of the next series is mouse erythrocytes. Put plainly: Hemolytic activity. Conditions: 1 hour at 37° C. As for the experimental part:
To compare the cytotoxicity among the peptides that are produced by the method of Example 1, erythrocyte hemolytic activity of the synthesized peptide was measured.
Specifically, erythrocytes of a mouse (Balb/c, 6 week old, female) were diluted in PBS (pH 7.0) to have concentration of 8%, and then subjected to a treatment with LL37, LL37-1, LL37-2, LL37-3 or LL37-4, to have concentration of 1.56, 3.13, 6.25, 12.5, 25.0, 50.0 or 100.0 μM/well for each followed by a reaction for 1 hour at 37° C. After that, the amount of hemoglobin contained in a supernatant collected by centrifuge at 1,000×g was determined by measuring the absorbance at a wavelength of 414 nm. As a control group to be used as a reference for cell disruption level, the supernatant collected by a treatment with 1% Triton X-100 (Sigma, USA) and a reaction for 1 hour at 37° C. was used to measure the absorbance. By setting the resulting absorbance value at 100% of the hemolytic activity, hemolysis of each peptide was calculated using the following formula. Erythrocyte disrupting ability (%)=(Absorbance A−Absorbance B)/(Absorbance C−Absorbance B)×100 (in the above formula, Absorbance A indicates the absorbance of a reaction solution treated with each peptide, in which the absorbance is measured at a wavelength of 414 nm; Absorbance B indicates the absorbance of a reaction solution treated with PBS, in which the absorbance is measured at a wavelength of 414 nm; and Absorbance C indicates the absorbance of a reaction solution treated with 1% Triton X-100, in which the absorbance is measured at a wavelength of 414 nm).

Series [3] has as its system Acinetobacter baumannii KCTC 2508. The settings on record: A. baumannii KCTC 2508. As for the experimental part: To determine the antimicrobial activity of peptides prepared by the method of above Example 1 in the presence of different ions in living body, minimal inhibitory concentration (MIC), i.e., lowest concentration of a peptide not allowing bacterial cell division, was measured.
Specifically, among the bacterial strains that are described in the above Table 2, Acinetobacter baumannii KCTC 2508 cells were cultured to a mid-log phase in MHB (Mueller Hinton Broth) medium, and, after diluting LL37-2 or LL37-4 peptide synthesized in the above Example 1 in a solution containing different kind of ions (sodium chloride, calcium chloride, magnesium chloride, and iron chloride) at different concentration, it was added to the plate in an amount of 50 μl per plate. After that, the cultured cells were diluted to cell concentration of 2×10^5 cells/50 μl, inoculated to a microtiter plate (NUNC, USA), and then cultured again for 18 hours at 37° C. By using a microtiter plate reader (Merck Elisa reader, Germany), absorbance at wavelength of 600 nm was measured and MIC value was determined for each strain. As a control, the MIC values of LL37, LL37-2 and LL37-4 for Acinetobacter baumannii KCTC 2508, which are shown in the above Table 3, were used.

SMILES strings stand for the structures. Where two headings read alike, the source gives them in different places. Where a SMILES comes first, the peptide text is derived from it.

The values that follow come from US11452758B2, “Antimicrobial peptide derived from LL37 peptide and uses thereof” (INDUSTRY-ACADEMIC COOPERATION FOUNDATION, CHOSUN UNIVERSITY, priority 2018, dated 2022).

`CC[C@H](C)[C@H](NC(=O)[C@H](CCCNC(=N)N)NC(=O)[C@H](CCC(N)=O)NC(=O)[C@@H](NC(=O)[C@@H](NC(=O)[C@H](CCCNC(=N)N)NC(=O)[C@H](CCCCN)NC(=O)[C@H](Cc1ccccc1)NC(=O)[C@H](CCCCN)NC(=O)[C@@H](N)CCCCN)[C@@H](C)CC)C(C)C)C(=O)N[C@@H](CCCCN)C(=O)N[C@@H](CC(=O)O)C(=O)N[C@@H](Cc1ccccc1)C(=O)N[C@@H](CC(C)C)C(=O)N[C@@H](CCCNC(=N)N)C(=O)N[C@@H](CC(N)=O)C(N)=O` [LL37-2, KKFKRIVQRIKDFLRN-NH2] (H-KKFKRIVQRIKDFLRN-NH2): the Cell survival ability in series [1] is reported as 107%; in series [2] it was 97%. Besides, the Erythrocyte disrupting ability came to 0% with mouse erythrocytes (peptide 1.56 μM); 0% with mouse erythrocytes (peptide 3.13 μM); 1% with mouse erythrocytes (peptide 6.25 μM); 1% in the series with mouse erythrocytes (peptide 12.5 μM); 1% with mouse erythrocytes (peptide 25 μM); 1% in the series with mouse erythrocytes (peptide 50 μM). The “Minimal inhibitory concentration of antimicrobial peptide” value came out at 4 µM in series [3] (Calcium chloride 1.25 mM); 4 µM in series [3] (Calcium chloride 2.5 mM); 8 µM in series [3] (Calcium chloride 5 mM); 4 µM in series [3] (Iron chloride 2 mM); 4 µM in series [3] (Iron chloride 4 mM); 4 µM in series [3] (Iron chloride 8 mM). Further, the “Minimal inhibitory concentration of antimicrobial peptide” value in series [3] (Magnesium chloride 0.5 mM) was 4 µM; in series [3] (Magnesium chloride 1 mM), 4 µM; in series [3] (Magnesium chloride 2 mM) it was 4 µM; in series [3] (Sodium chloride 50 mM), 8 µM; in series [3] (Sodium chloride 100 mM), 16 µM; in series [3] (Sodium chloride 150 mM), 32 µM.
